# Source: patent US20080098491A1, “MOUSE MODELS TO STUDY CACHEXIA” (ZOLTAN LABORATORIES LLC, priority 2006, published 2008)
# Assays:
# fibroblast proliferation [1] = experiment: Fibroblast proliferation in vitro, effect of pre-heating the protein; format: cell-based
# Description: It is reasonable to expect that pre-heating of PALP at 65-75° C. prior to its use may also enhance its anti-cachectic effect. Thus, a step of heat-activation of both commercial and highly purified PALP preparation may be included prior to their applications.
# Thus, pre-heating of TF-containing compositions to enhance the effects of other components, such as PALP and AT will unlikely to alter the ability of TF to reduce tumor- and chemotherapy-induced body weight loss.
# Therefore, a step of heat-activation of AT may be included during the preparation of active compositions.
# MXT mouse mammary tumor [2] = experiment: Cisplatin-treated MXT mouse mammary tumor model, PALP and TF (Example 9, Experiment 1); format: in vivo; conditions: co-treated with cisplatin 3-mg/kg i.p.
# Description: (§1) The B16 mouse melanoma and MXT mouse mammary tumors were developed in first generation hybrid BDF1 (C57 B1 female×DBA/2 male) adult female mice kept at specified pathogen free (SPF) hygienic level. These models were chosen for these experiments because these mice have the complete immune system, and both tumors grow very rapidly. To develop the tumors, B16 and MXT tumor tissue fragments of about 0.1-cm^3 were surgically implanted subcutaneously into the intrascapular region to develop the tumors. Each tumor fragment contained about 1-1.5×10^6 cells. The animals were kept in macrolon cages on ventilated rack at 22-24° C. (50-60% humidity) with lighting regimen of 12/12 h light/dark. The animals had free access to tap water and were fed with sterilized standard diet (Charles River VRF1, Germany) ad libitum. The animals were taken care of according to the “Guiding Principle for the care and use of Animals” based upon the Helsinki declaration and they were approved by the local ethical committee.
# (§2) In case of both tumor models the tumor size was usually in the range of 0.2 to 0.5-g when treatments started 7-11 days after tumor implantation; the mice were selected so that in the same treatment group the difference in tumor size was no greater than 0.1 gram. In some experiments, the test proteins were suspended in physiological saline and injected in 50-μl volume subcutaneously in the vicinity of tumor (within 1-cm of tumor margin). In other experiments, the test proteins were dispersed in Vaselinum cholesteratum and used topically; 150-mg cream was applied on the tumor and the vicinity of tumor area (with about 0.5-cm of the tumor margin). The tumor volume was determined by using calipers; this technique is well known to one having ordinary skill in the art. Tumor volume was calculated according to the generally accepted formula: V=a^2×b×7r/6, where “a” and “b” mean the shortest and longest diameter, respectively, of the measured tumor.
# Experiment 1. The mouse MXT mammary tumor was developed as described in Example 3. In the first group, animals remained untreated during the whole observation period. In the second group, starting on the 7th day after tumor implantation, mice were intraperitoneally (i.p.) administered 3-mg per 1-kg total weight of cisplatin 7-times every second day. In the third group, starting on the 7th day after tumor implantation, mice were simultaneously administered 3-mg per 1-kg of cisplatin i.p. and 16-mg per 1-kg of purified PALP s.c. In the fourth group, starting on the 7th day after tumor implantation, mice were simultaneously administered 3-mg per 1-kg of cisplatin i.p. and 60-mg per 1-kg of commercial PALP s.c. In the fifth group, starting on the 7th day after tumor implantation, mice were simultaneously administered 3-mg per 1-kg of cisplatin i.p. and 14-mg per 1-kg of commercial TF (T 3309 in the Sigma catalog) s.c. Each treatment was performed 7-times on every second day. Each group included 7 animals. The mean values for total weight, tumor weight and body weight (the difference between total and tumor weight) are shown in TABLE 6.
# B16 mouse melanoma [3] = experiment: B16 mouse melanoma model, s.c. commercial PALP, s.c. plus topical PALP, or TF (Example 4, Experiment 2); format: in vivo; conditions: TF 16-mg/kg s.c.; for Body weight (total weight minus tumor weight) / Total weight / Tumor weight: days 11-18 daily: commercial PALP 60-mg/kg s.c., topical cream 4-mg commercial PALP/g
# Description: as §1, §2
# In this model, either highly purified PALP or commercial PALP was subcutaneously injected to reverse body weight loss in the rapidly growing B16 melanoma model. Two separate experiments were performed to validate the effects of highly purified PALP (Experiment 1) and commercial PALP (Experiment 2). For both experiments, the B16 mouse melanoma model was developed as described in Example 3. The data presented in TABLE 1 (for Experiment 1) and TABLE 2 (for Experiment 2) show the changes in total weight, tumor weight, and body weight (total weight minus tumor weight). In each experimental group all mice survived until the conclusion of the experiment.
# Experiment 2. In this experiment, the first group of animals remained untreated for the entire observation period. In the second group, from day 11 through day 18 after implantation of tumor pieces, the animals were treated daily with 60-mg/kg of commercial PALP via s.c. administration (seven treatments). In the third group, from day 11 through day 18 after implantation of tumor pieces, the animals were simultaneously administered 60-mg/kg of commercial PALP via s.c injection and treated topically with 150-mg of cream containing 4-mg commercial PALP in 1-g of Vaselinum cholesteratum (seven treatments). Topical treatment involved spreading the cream on both the tumor and surrounding skin area. In the fourth group, from day 11 through day 18 after implantation of tumor pieces, the animals were treated with 16-mg/kg of commercial partially iron-saturated TF via subcutaneous administration (seven treatments). Each group included seven mice.
# MXT mouse mammary tumor [4] = experiment: Cisplatin-treated MXT mouse mammary tumor model, purified PALP, AT, holo-TF, apo-TF (Example 9, Experiment 2); format: in vivo; conditions: 12-mg/kg s.c. with cisplatin 3-mg/kg i.p.
# Description: as §1, §2
# Experiment 2. The commercial PALP used in this model for Exp. 1 was composed of PALP (˜10%), TF (˜12%), AT (˜30%), albumin (˜35%) and the degradation products of TF (˜13%). […] In this experiment, it was determined whether the other two major proteins, i.e. TF and AT, present in the commercial PALP preparation in addition to PALP, also influence cisplatin-induced loss of body weight or not. The mouse MXT mammary tumor was developed as described in Example 3. In the first group, animals remained untreated during the whole observation period. In the second group, starting on the 7th day after tumor implantation, mice were administered 3-mg per 1-kg of cisplatin i.p. 6-times every second day. In the third group, starting on the 7th day after tumor implantation, mice were simultaneously administered 3-mg per 1-kg of cisplatin i.p. and 12-mg per 1-kg of purified PALP s.c. In the fourth group, starting on the 7th day after tumor implantation, mice were simultaneously administered 3-mg per 1-kg of cisplatin i.p. and 12-mg per 1-kg of highly purified AT s.c. In the fifth group, starting on the 7th day after tumor implantation, mice were simultaneously administered 3-mg per 1-kg of cisplatin i.p. and 12-mg per 1-kg of commercial holo-TF (h-TF, T 0665 in the Sigma catalog) s.c. In the sixth group, starting on the 7th day after tumor implantation, mice were simultaneously administered 3-mg per 1-kg of cisplatin i.p. and 12-mg per 1-kg of commercial apo-TF (a-TF, T 2036 in the Sigma catalog) s.c. Holo-TF contained 1,100-1,600 μg iron per gram protein while apo-TF was essentially iron-free. Each treatment with the proteins was also performed 6-times on every second day simultaneously with the cisplatin treatment. Each group included 7 animals. The mean values for total weight, tumor weight and body weight (the difference between total and tumor weight) are shown in gram in TABLE 7.
# fibroblast proliferation [5] = conditions: in vitro; cited from earlier work
# MXT mouse mammary tumor [6] = experiment: Cisplatin-treated MXT mouse mammary tumor model, CCDTHT (Example 10); format: in vivo; conditions: with cisplatin 3-mg/kg i.p.
# Description: as §1, §2
# The mouse MXT mammary tumor was developed as described in Example 3. In the first group, animals remained untreated during the whole observation period. In the second group, starting on the 7th day after tumor implantation, mice were administered 3-mg per 1-kg of cisplatin i.p. 9-times every second day. In the third group, starting on the 7th day after tumor implantation, mice were simultaneously administered 3-mg per 1-kg of cisplatin i.p. and 4.6-mg per 1-kg of CCDTHT s.c. In the fourth group, starting on the 7th day after tumor implantation, mice were simultaneously administered 3-mg per 1-kg of cisplatin i.p. as well as 4.6-mg per 1-kg of CCDTHT s.c. and 14-mg per 1-kg of highly purified PALP s.c. Each treatment was performed 9-times on every second day. Each group included 7 animals. The mean values for total weight, tumor weight and body weight (the difference between total and tumor weight) are shown in TABLE 8.
# B16 mouse melanoma [7] = experiment: B16 mouse melanoma model, s.c. CCDTHT (Example 8); format: in vivo; conditions: for Body weight (total weight minus tumor weight) / Total weight / Tumor weight: CCDTHT 4.5-mg/kg s.c. daily from day 11 until day 22
# Description: as §1, §2
# In this model, CCDTHT, a chemically synthesized compound is used to prevent or reverse tumor-induced body weight loss. The B16 mouse tumors were developed as described in Example 3. Two experimental groups each involving five mice were used. In the first group, mice remained untreated during the entire observation period. In the second group, starting on the 11th day after tumor implantation, mice were s.c. administered 4.5-mg/kg CCDTHT; then the treatments were repeated daily until day 22. The mean values for total weight, tumor weight and body weight (the difference between total and tumor weight) are shown in TABLE 5.
# [8] = day 11 after tumor transplantation
# [9] = day 14 after tumor transplantation
# [10] = day 16 after tumor transplantation
# [11] = day 18 after tumor transplantation
# [12] = day 21 after tumor transplantation
# [13] = day 23 after tumor transplantation
# [14] = day 23, CCDTHT 4.5-mg/kg s.c. daily
compound,measurement,setting,value
TF s.c.: commercial partially iron-saturated human transferrin (Sigma T 3309),Effect of pre-heating on the stimulatory effects on fibroblast proliferation,fibroblast proliferation [1],not altered by pre-heating it at up to 75 °C for 30 min
same,Effect on body weight loss induced by the tumor and cisplatin,MXT mouse mammary tumor [2],partially reversed body weight loss
same,Effect on body weight loss,B16 mouse melanoma [3]; commercial PALP 60-mg/kg s.c.,stabilized body weights but did not promote weight gain
same,Body weight (total weight minus tumor weight),B16 mouse melanoma [3]; [8],22.4 gram
same,Total weight,B16 mouse melanoma [3]; [8],22.9 gram
same,Tumor weight,B16 mouse melanoma [3]; [8],0.5 gram
same,Body weight (total weight minus tumor weight),B16 mouse melanoma [3]; [9],23.5 gram
same,Total weight,B16 mouse melanoma [3]; [9],24.2 gram
same,Tumor weight,B16 mouse melanoma [3]; [9],0.7 gram
same,Body weight (total weight minus tumor weight),B16 mouse melanoma [3]; [10],23.5 gram
same,Total weight,B16 mouse melanoma [3]; [10],24.3 gram
same,Tumor weight,B16 mouse melanoma [3]; [10],0.8 gram
same,Body weight (total weight minus tumor weight),B16 mouse melanoma [3]; [11],23.6 gram
same,Total weight,B16 mouse melanoma [3]; [11],25.0 gram
same,Tumor weight,B16 mouse melanoma [3]; [11],1.4 gram
same,Body weight (total weight minus tumor weight),B16 mouse melanoma [3]; [12],23.9 gram
same,Total weight,B16 mouse melanoma [3]; [12],26.1 gram
same,Tumor weight,B16 mouse melanoma [3]; [12],2.2 gram
same,Body weight (total weight minus tumor weight),B16 mouse melanoma [3]; [13],23.9 gram
same,Total weight,B16 mouse melanoma [3]; [13],26.6 gram
same,Tumor weight,B16 mouse melanoma [3]; [13],2.7 gram
"holo-TF: commercial holo-transferrin (Sigma T 0665), 1,100-1,600 μg iron per gram protein",Effect on cisplatin-induced body weight loss,MXT mouse mammary tumor [4],partially reversed cisplatin-induced body weight loss
AT: human α1-antitrypsin purified to homogeneity from commercial PALP,Effect of pre-heating on the stimulatory effect on fibroblast proliferation,fibroblast proliferation [5],enhanced by pre-heating it at 65-75 °C for 30 min or at 41 °C for 21 hours
same,Effect on cisplatin-induced body weight loss,MXT mouse mammary tumor [4],partially reversed cisplatin-induced body weight loss
"CC[N+](C)(CC)CCOCc1ccc2sc3ccccc3c(=O)c2c1.[I-] [CCDTHT, N,N-diethyl-N-methyl-2-[(9-oxo-9H-thioxanthen-2-yl)methoxy]-ethanaminium iodide]",Effect on cisplatin-induced body weight loss,MXT mouse mammary tumor [6],effectively prevents cisplatin-induced body weight loss
same,Effect on body weight,B16 mouse melanoma [7]; CCDTHT 4.5-mg/kg s.c. daily,modest weight gain
same,Body weight (total weight minus tumor weight),B16 mouse melanoma [7]; [8],22.4 g
same,Total weight,B16 mouse melanoma [7]; [8],23.0 g
same,Tumor weight,B16 mouse melanoma [7]; [8],0.6 g
same,Body weight (total weight minus tumor weight),B16 mouse melanoma [7]; [9],22.9 g
same,Total weight,B16 mouse melanoma [7]; [9],23.7 g
same,Tumor weight,B16 mouse melanoma [7]; [9],0.8 g
same,Body weight (total weight minus tumor weight),B16 mouse melanoma [7]; [10],23.2 g
same,Total weight,B16 mouse melanoma [7]; [10],24.2 g
same,Tumor weight,B16 mouse melanoma [7]; [10],1.0 g
same,Body weight (total weight minus tumor weight),B16 mouse melanoma [7]; [11],23.4 g
same,Total weight,B16 mouse melanoma [7]; [11],24.7 g
same,Tumor weight,B16 mouse melanoma [7]; [11],1.3 g
same,Body weight (total weight minus tumor weight),B16 mouse melanoma [7]; [12],23.6 g
same,Total weight,B16 mouse melanoma [7]; [12],25.4 g
same,Tumor weight,B16 mouse melanoma [7]; [12],1.8 g
same,Body weight difference to control mice,B16 mouse melanoma [7]; [14],about 10%
same,Body weight heavier than control mice,B16 mouse melanoma [7]; [14],2.6 grams
same,Body weight (total weight minus tumor weight),B16 mouse melanoma [7]; [13],23.8 g
same,Total weight,B16 mouse melanoma [7]; [13],25.9 g
same,Tumor weight,B16 mouse melanoma [7]; [13],2.1 g
"apo-TF: commercial apo-transferrin (Sigma T 2036), essentially iron-free",Effect on cisplatin-induced body weight loss,MXT mouse mammary tumor [4],partially reversed cisplatin-induced body weight loss
